Assay results published in the NIST ThermoML archive (doi:10.1016/j.jct.2018.11.025).
Numbers after ± are expanded uncertainties.

Conditions: for Normal melting temperature: DTA

Normal melting temperature (Crystal 1) | Triple point temperature (Crystal 2, DSC) | Normal melting temperature (Crystal) | Structure (SMILES)
98.56 ± 0.7 °C | 339.52 ± 0.93 K |  | c1ccc2c(c1)ccc1ccccc12 [phenanthrene]
 |  | 243.89 ± 0.7 °C | c1ccc2c(c1)[nH]c1ccccc12 [9H-carbazole]
